How the values were obtained:
[1] = Stability test: storage at 30° or 37° C. for 12 months, amount of therapeutic agent remaining assayed at 2 and 12 months; assay type: physicochemical
[2] = Stability in the presence of acid or of polyethylene glycol (general statements, no test described); assay type: physicochemical
[3] = cited from earlier work

- % remaining after 2 months at 37° C. [1]: Dec
- % remaining after 12 months at 30° C. [1]: Dec
- % remaining after 12 months at 37° C. [1]: Dec
- % remaining after 2 months at 30° C. ([1]; storage, 1460 h): 78%
- stability in the presence of polyethylene glycol, or a derivative thereof [2]: improved stability
SMILES: C/C(=C\C(=O)OCCCCCCCCC(=O)O)C[C@@H]1OC[C@H](C[C@@H]2O[C@H]2[C@@H](C)[C@H](C)O)[C@@H](O)[C@H]1O [Pseudomonic acid]
- stability in the presence of acid [3]: tend to undergo a rearrangement reaction in the presence of acid
